Test results taken from US12281108B2, “Pyrrolidinone derivatives as formyl peptide 2 receptor agonists” (BRISTOL-MYERS SQUIBB COMPANY, priority 2018, dated 2025).
Read-outs that look alike come from different tables or passages of the source.

Key:
human FPR2 receptors = target: T1, human FPR2 receptors (Homo sapiens, UniProt P25090); test: FPR2 cAMP assay in CHO cells overexpressing human FPR2 (HTRF); assay type: cell-based
T1 sequence (P25090 1-351): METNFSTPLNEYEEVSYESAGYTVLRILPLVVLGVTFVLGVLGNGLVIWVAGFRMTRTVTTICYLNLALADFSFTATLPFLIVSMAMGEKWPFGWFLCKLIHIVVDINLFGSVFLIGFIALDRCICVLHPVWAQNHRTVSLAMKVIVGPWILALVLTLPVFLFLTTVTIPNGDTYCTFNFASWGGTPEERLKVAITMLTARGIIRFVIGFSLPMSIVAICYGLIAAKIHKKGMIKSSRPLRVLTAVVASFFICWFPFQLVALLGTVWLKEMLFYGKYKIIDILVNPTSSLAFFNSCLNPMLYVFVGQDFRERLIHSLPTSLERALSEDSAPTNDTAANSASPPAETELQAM
From the text: (§1) N-formyl peptide receptors (FPRs) are a family of chemo attractant receptors that facilitate leukocyte response during inflammation. FPRs belong to the seven-transmembrane G protein-coupled receptor superfamily and are linked to inhibitory G-proteins (Gi). Three family members (FPR1, FPR2 and FPR3) have been identified in humans and are predominantly found in myeloid cells with varied distribution and have also been reported in multiple organs and tissues. After agonist binding, the FPRs activate a multitude of physiological pathways, such as intra cellular signaling transduction, Ca^2+ mobilization and transcription. The family interacts with a diverse set of ligands that includes proteins, polypeptides and fatty acid metabolites which activate both pro-inflammatory and pro-resolution downstream responses. FPR2 and FPR1 Cyclic Adenosine Monophosphate (cAMP) Assays were used to measure the in vitro activity of the compounds disclosed in this application.
FPR2 and FPR1 Cyclic Adenosine Monophosphate (cAMP) Assays. A mixture of forskolin (5 μM final for FPR2 or 10 μM final for FPR1) and IBMX (200 μM final) were added to 384-well Proxiplates (Perkin-Elmer) pre-dotted with test compounds in DMSO (1% final) at final concentrations in the range of 0.020 nM to 100 μM. Chinese Hamster Ovary cells (CHO) overexpressing human FPR1 or human FPR2 receptors were cultured in F-12 (Ham's) medium supplemented with 10% qualified FBS, 250 μg/ml zeocin and 300 μg/ml hygromycin (Life Technologies). Reactions were initiated by adding 2,000 human FPR2 cells per well or 4,000 human FPR1 cells per well in Dulbecco's PBS (with calcium and magnesium) (Life Technologies) supplemented with 0.1% BSA (Perkin-Elmer). The reaction mixtures were incubated for 30 min at room temperature. The level of intracellular cAMP was determined using the HTRF HiRange cAMP assay reagent kit (Cisbio) according to manufacturer's instruction. Solutions of cryptate conjugated anti-cAMP and d2 flurorophore-labelled cAMP were made in a supplied lysis buffer separately. Upon completion of the reaction, the cells were lysed with equal volume of the d2-cAMP solution and anti-cAMP solution. After a 1-h room temperature incubation, time-resolved fluorescence intensity was measured using the Envision (Perkin-Elmer) at 400 nm excitation and dual emission at 590 nm and 665 nm. A calibration curve was constructed with an external cAMP standard at concentrations ranging from 1 μM to 0.1 pM by plotting the fluorescent intensity ratio from 665 nm emission to the intensity from the 590 nm emission against cAMP concentrations. The potency and activity of a compound to inhibit cAMP production was then determined by fitting to a 4-parametric logistic equation from a plot of cAMP level versus compound concentrations.

human FPR1 receptors = target: T2, human FPR1 receptors (Homo sapiens, UniProt P21462); test: FPR1 cAMP assay in CHO cells overexpressing human FPR1 (HTRF); assay type: cell-based; settings: forskolin 10 μM, inhibition of cAMP production, read-out: hFPR1 cAMP EC50
T2 sequence (P21462 1-350): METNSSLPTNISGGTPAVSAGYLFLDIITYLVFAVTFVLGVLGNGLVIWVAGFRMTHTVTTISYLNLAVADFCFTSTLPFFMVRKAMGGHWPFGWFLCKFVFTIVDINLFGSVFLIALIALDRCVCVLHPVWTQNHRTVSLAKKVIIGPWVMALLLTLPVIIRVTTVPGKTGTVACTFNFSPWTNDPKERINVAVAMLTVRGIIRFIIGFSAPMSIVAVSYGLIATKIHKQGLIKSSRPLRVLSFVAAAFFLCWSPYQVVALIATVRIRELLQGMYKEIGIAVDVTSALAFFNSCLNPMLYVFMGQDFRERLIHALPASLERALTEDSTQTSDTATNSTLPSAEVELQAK
From the text: as §1
FPR2 and FPR1 Cyclic Adenosine Monophosphate (cAMP) Assays. A mixture of forskolin (5 μM final for FPR2 or 10 μM final for FPR1) and IBMX (200 μM final) were added to 384-well Proxiplates (Perkin-Elmer) pre-dotted with test compounds in DMSO (1% final) at final concentrations in the range of 0.020 nM to 100 μM. Chinese Hamster Ovary cells (CHO) overexpressing human FPR1 or human FPR2 receptors were cultured in F-12 (Ham's) medium supplemented with 10% qualified FBS, 250 μg/ml zeocin and 300 μg/ml hygromycin (Life Technologies). […] The level of intracellular cAMP was determined using the HTRF HiRange cAMP assay reagent kit (Cisbio) according to manufacturer's instruction. […] After a 1-h room temperature incubation, time-resolved fluorescence intensity was measured using the Envision (Perkin-Elmer) at 400 nm excitation and dual emission at 590 nm and 665 nm. […] The potency and activity of a compound to inhibit cAMP production was then determined by fitting to a 4-parametric logistic equation from a plot of cAMP level versus compound concentrations.

[1] = CHO cells overexpressing human FPR2, forskolin 5 μM, inhibition of cAMP production, read-out: hFPR2 cAMP2 EC50
[2] = hFPR2 assay, potency bins, read-out: hFPR2 agonist activity EC50

| Structure (SMILES) | EC50 (human FPR2 receptors; [1]) | EC50 (human FPR1 receptors) | EC50 (human FPR2 receptors; [2]) |
| --- | --- | --- | --- |
| COc1cc(F)c([C@@H]2CNC(=O)[C@H]2Nc2nnc(-c3ccc(SC(F)(F)F)cc3)o2)c(F)c1 [Example 18, (3S,4R)-4-(2,6-difluoro-4-methoxyphenyl)-3-[(5-{4-[(trifluoromethyl)sulfanyl]phenyl}-1,3,4-oxadiazol-2-yl)amino]pyrrolidin-2-one] | 0.0067 µM | 0.16 µM | – |
| COc1cc(F)c([C@@H]2CNC(=O)[C@H]2Nc2cc(-c3ccc(C(F)F)cc3)on2)c(F)c1 [Example 22, (3S,4R)-4-(2,6-difluoro-4-methoxyphenyl)-3-({5-[4-(difluoromethyl)phenyl]-1,2-oxazol-3-yl}amino)pyrrolidin-2-one] | 0.89 µM | 2.9 µM | – |
| COc1cc(F)c([C@@H]2CNC(=O)[C@H]2Nc2nnc(-c3ccc(Oc4ccc(C(F)(F)F)nc4)cc3)o2)c(F)c1 [Example 58, (3S,4R)-4-(2,6-difluoro-4-methoxyphenyl)-3-{[5-(4-{[6-(trifluoromethyl)pyridin-3-yl]oxy}phenyl)-1,3,4-oxadiazol-2-yl]amino}pyrrolidin-2-one] | 0.071 µM | 0.87 µM | – |
| COc1cc(F)c([C@@H]2CNC(=O)[C@H]2Nc2nnc(-c3ccc(Oc4ncccc4F)cc3)o2)c(F)c1 [Example 61, (3S,4R)-4-(2,6-difluoro-4-methoxyphenyl)-3-[(5-{4-[(3-fluoropyridin-2-yl)oxy]phenyl}-1,3,4-oxadiazol-2-yl)amino]pyrrolidin-2-one] | – | – | 0.04 to 0.15 µM |
| COc1cc(F)c([C@@H]2CNC(=O)[C@H]2Nc2nnc(-c3ccc(Oc4cc(OC)ncn4)cc3)o2)c(F)c1 [Example 62, (3S,4R)-4-(2,6-difluoro-4-methoxyphenyl)-3-[(5-{4-[(6-methoxypyrimidin-4-yl)oxy]phenyl}-1,3,4-oxadiazol-2-yl)amino]pyrrolidin-2-one] | – | – | 0.04 to 0.15 µM |
| COc1cc(F)c([C@@H]2CNC(=O)[C@H]2Nc2nnc(-c3ccc(Oc4cncc(C)n4)cc3)o2)c(F)c1 [Example 63, (3S,4R)-4-(2,6-difluoro-4-methoxyphenyl)-3-[(5-{4-[(6-methylpyrazin-2-yl)oxy]phenyl}-1,3,4-oxadiazol-2-yl)amino]pyrrolidin-2-one] | – | – | 0.04 to 0.15 µM |
| COc1cc(F)c([C@@H]2CNC(=O)[C@H]2Nc2nnc(-c3ccc(Oc4cccc(F)n4)cc3)o2)c(F)c1 [Example 64, (3S,4R)-4-(2,6-difluoro-4-methoxyphenyl)-3-[(5-{4-[(6-fluoropyridin-2-yl)oxy]phenyl}-1,3,4-oxadiazol-2-yl)amino]pyrrolidin-2-one] | – | – | ≤ 0.04 µM |
| COc1cc(F)c([C@@H]2CNC(=O)[C@H]2Nc2nnc(-c3ccc(Oc4ccc(F)cn4)cc3)o2)c(F)c1 [Example 65, (3S,4R)-4-(2,6-difluoro-4-methoxyphenyl)-3-[(5-{4-[(5-fluoropyridin-2-yl)oxy]phenyl}-1,3,4-oxadiazol-2-yl)amino]pyrrolidin-2-one] | – | – | 0.04 to 0.15 µM |
| COc1cc(F)c([C@@H]2CNC(=O)[C@H]2Nc2nnc(-c3ccc(Oc4ncccc4C#N)cc3)o2)c(F)c1 [Example 66, 2-[4-(5-{[(3S,4R)-4-(2,6-difluoro-4-methoxyphenyl)-2-oxopyrrolidin-3-yl]amino}-1,3,4-oxadiazol-2-yl)phenoxy]pyridine-3-carbonitrile] | – | – | 0.04 to 0.15 µM |
| COc1cc(F)c([C@@H]2CNC(=O)[C@H]2Nc2nnc(-c3ccc(Oc4cccc(OC)n4)cc3)o2)c(F)c1 [Example 67, (3S,4R)-4-(2,6-difluoro-4-methoxyphenyl)-3-[(5-{4-[(6-methoxypyridin-2-yl)oxy]phenyl}-1,3,4-oxadiazol-2-yl)amino]pyrrolidin-2-one] | – | – | 0.15 to 1 µM |
| COc1cc(F)c([C@@H]2CNC(=O)[C@H]2Nc2nnc(-c3ccc(Oc4cc(Cl)ccn4)cc3)o2)c(F)c1 [Example 68, (3S,4R)-3-[(5-{4-[(4-chloropyridin-2-yl)oxy]phenyl}-1,3,4-oxadiazol-2-yl)amino]-4-(2,6-difluoro-4-methoxyphenyl)pyrrolidin-2-one] | – | – | ≤ 0.04 µM |
